Data as given in patent publication EP4692062A1, “NOVEL AMIDE-BASED COMPOUND AND COMPOSITION COMPRISING SAME” (Amorepacific Corporation, priority 2023, dated 2024).

How the values were obtained:
Type in all cases: biochemical
MMP-2 [1] = biological target: T1, MMP-2 (Homo sapiens, UniProt P08253); assay: MMP2 Inhibitor Screening Assay Kit (ab139446), colorimetric thiopeptide substrate, OD412; details: for inhibition at 10 µM / remaining activity at 10 µM: T-05~20 at 10 uM; for inhibition at 10 µM / inhibition at 0.5 µM: read-out: MMP-2 (%) (inhibitory efficacy, high concentration); for remaining activity at 10 µM / remaining activity at 0.5 µM: remaining enzyme activity, read-out: MMP-2 (%) (enzyme activity, high concentration); for inhibition at 0.5 µM / remaining activity at 0.5 µM: T-23~34 at 0.5 uM
T1 construct: purchased Abchem (so in the source)
T1 sequence (P08253 110-660): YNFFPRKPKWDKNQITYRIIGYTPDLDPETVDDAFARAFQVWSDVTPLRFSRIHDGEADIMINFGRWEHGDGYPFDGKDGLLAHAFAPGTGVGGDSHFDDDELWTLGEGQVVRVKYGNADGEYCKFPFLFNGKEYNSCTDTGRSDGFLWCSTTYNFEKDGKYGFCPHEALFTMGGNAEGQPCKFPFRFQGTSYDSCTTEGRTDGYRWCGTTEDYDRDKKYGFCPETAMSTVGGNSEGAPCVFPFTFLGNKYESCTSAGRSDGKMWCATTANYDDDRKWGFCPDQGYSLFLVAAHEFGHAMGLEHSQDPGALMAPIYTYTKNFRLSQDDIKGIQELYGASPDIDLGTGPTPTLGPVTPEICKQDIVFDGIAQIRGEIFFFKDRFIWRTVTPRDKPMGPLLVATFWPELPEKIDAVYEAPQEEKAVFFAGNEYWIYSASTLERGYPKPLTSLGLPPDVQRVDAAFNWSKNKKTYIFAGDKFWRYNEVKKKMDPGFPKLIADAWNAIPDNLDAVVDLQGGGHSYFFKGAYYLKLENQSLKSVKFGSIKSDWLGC

MMP-1 = biological target: T2, MMP-1 (Homo sapiens, UniProt P03956); assay: MMP1 Inhibitor Screening Assay Kit (ab139443), colorimetric thiopeptide substrate, OD412; details: for inhibition at 10 µM / remaining activity at 10 µM: T-05~20 at 10 uM; for inhibition at 10 µM / inhibition at 5 µM: read-out: MMP-1 (%) (inhibitory efficacy, high concentration); for remaining activity at 0.5 µM / remaining activity at 10 µM / remaining activity at 5 µM: remaining enzyme activity; for remaining activity at 0.5 µM: untreated group = 100%, n=2; for remaining activity at 10 µM / remaining activity at 5 µM: read-out: MMP-1 (%) (enzyme activity, high concentration); for inhibition at 5 µM / remaining activity at 5 µM: T-23~34 at 5 uM
T2 construct: purchased Abchem (so in the source)
T2 sequence (P03956 100-269 limits assumed): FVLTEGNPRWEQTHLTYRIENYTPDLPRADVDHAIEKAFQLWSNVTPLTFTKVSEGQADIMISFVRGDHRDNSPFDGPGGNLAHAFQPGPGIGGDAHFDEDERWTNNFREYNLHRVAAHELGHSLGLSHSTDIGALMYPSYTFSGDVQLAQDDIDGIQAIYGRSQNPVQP
Description: Enzyme activity (%) at the same concentration was compared with treatment with 0.5 µM MMP-1 activity and 50 nM MMP-2 and MMP-9 activity (n=2). Here, enzyme activity (%) refers to the enzyme activity (%) of the experimental group when the untreated group is considered to have 100% enzyme activity.
To evaluate the effect of the new compound on the enzyme activity, the color change was measured by following the provided protocol using a kit sold by Abchem as follows.
As MMP activity increases, the substrate is decomposed and the OD412 level increases. Therefore, the change in OD412 level (OD value) per minute was measured and the value was obtained according to the enzyme activity calculation formula below. […] (ε=13,600 M^-1cm^-1 above pH 6.0)
New compound enzyme activity(%) = (Vnew compound/Vuntreated group)*100 [formula] V = change in OD value per minute

MMP-2 [2] = biological target: T1, MMP-2; assay: MMP2 Inhibitor Screening Assay Kit (ab139446), colorimetric thiopeptide substrate, OD412; details: compound at 50 nM; for remaining activity at 0.05 µM: remaining enzyme activity, untreated group = 100%, n=2
Description: Enzyme activity (%) at the same concentration was compared with treatment with 0.5 µM MMP-1 activity and 50 nM MMP-2 and MMP-9 activity (n=2). Here, enzyme activity (%) refers to the enzyme activity (%) of the experimental group when the untreated group is considered to have 100% enzyme activity. To evaluate the effect of the new compound on the enzyme activity, the color change was measured by following the provided protocol using a kit sold by Abchem as follows. […] Therefore, the change in OD412 level (OD value) per minute was measured and the value was obtained according to the enzyme activity calculation formula below. […] (ε=13,600 M^-1cm^-1 above pH 6.0) New compound enzyme activity(%) = (Vnew compound/Vuntreated group)*100 [formula] V = change in OD value per minute

MMP-9 [3] = biological target: T3, MMP-9 (Homo sapiens, UniProt P14780); assay: MMP9 Inhibitor Screening Assay Kit (ab139448), colorimetric thiopeptide substrate, OD412; details: compound at 50 nM; for remaining activity at 0.05 µM: remaining enzyme activity, untreated group = 100%, n=2; for inhibition at 0.05 µM: read-out: MMP-9 (%) at 50 nM (inhibitory activity)
T3 construct: purchased Abchem (so in the source)
T3 sequence (P14780 94-707): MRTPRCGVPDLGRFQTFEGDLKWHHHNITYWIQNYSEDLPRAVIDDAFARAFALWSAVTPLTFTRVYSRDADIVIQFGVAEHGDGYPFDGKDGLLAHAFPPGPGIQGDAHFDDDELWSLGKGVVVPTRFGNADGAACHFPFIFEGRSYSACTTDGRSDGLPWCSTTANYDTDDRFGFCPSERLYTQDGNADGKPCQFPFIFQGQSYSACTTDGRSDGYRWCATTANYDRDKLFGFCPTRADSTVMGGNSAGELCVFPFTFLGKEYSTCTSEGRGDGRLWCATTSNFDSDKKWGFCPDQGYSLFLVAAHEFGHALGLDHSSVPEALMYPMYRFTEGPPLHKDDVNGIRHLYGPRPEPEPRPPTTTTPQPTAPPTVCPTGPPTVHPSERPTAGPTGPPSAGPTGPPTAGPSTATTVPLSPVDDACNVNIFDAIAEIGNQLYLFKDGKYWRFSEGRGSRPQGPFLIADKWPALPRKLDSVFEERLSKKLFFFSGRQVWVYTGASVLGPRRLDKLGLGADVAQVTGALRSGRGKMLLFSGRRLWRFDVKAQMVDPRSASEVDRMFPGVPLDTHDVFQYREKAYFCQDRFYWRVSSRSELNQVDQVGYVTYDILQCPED
Description: Enzyme activity (%) at the same concentration was compared with treatment with 0.5 µM MMP-1 activity and 50 nM MMP-2 and MMP-9 activity (n=2). Here, enzyme activity (%) refers to the enzyme activity (%) of the experimental group when the untreated group is considered to have 100% enzyme activity. To evaluate the effect of the new compound on the enzyme activity, the color change was measured by following the provided protocol using a kit sold by Abchem as follows. Enzyme activity was obtained by comparing absorbance per minute with the untreated group. • MMP1 Inhibitor Screening Assay Kit (ab139443) • MMP2 Inhibitor Screening Assay Kit (ab139446) • MMP9 Inhibitor Screening Assay Kit (ab139448) As MMP activity increases, the substrate is decomposed and the OD412 level increases. Therefore, the change in OD412 level (OD value) per minute was measured and the value was obtained according to the enzyme activity calculation formula below. Here, OD412 means optical density or absorbance at 412 nm. • Thiopeptide (Ac-PLG-[2-mercapto-4-methyl-pentanoyl]-LG-OC2H5) as a chromogenic substrate. • The MMP cleavage site peptide bond was replaced by the thioester bond of the thiopeptide. • Hydrolysis of this bond by MMP generates a sulfhydryl group, which reacts with DTNB [5,5'-dithiobis(2-nitrobenzoic acid), Ellman's reagent] to form 2-nitro-5-thiobenzoic acid. , which can be measured by its absorbance at 412 nm. (ε=13,600 M^-1cm^-1 above pH 6.0) New compound enzyme activity(%) = (Vnew compound/Vuntreated group)*100 [formula] V = change in OD value per minute

MMP-9 [4] = biological target: T3, MMP-9; assay: as above; details: T-23~34 at 0.5 uM; for inhibition at 0.5 µM: read-out: MMP-9 (%) (inhibitory efficacy, high concentration); for remaining activity at 0.5 µM: remaining enzyme activity, read-out: MMP-9 (%) (enzyme activity, high concentration)

Row | SMILES | inhibition at 10 µM (MMP-2 [1]) [%] | remaining activity at 10 µM (MMP-2 [1]) [%] | inhibition at 10 µM (MMP-1; inhibition) [%] | remaining activity at 0.5 µM (MMP-1; compound at 0.5 uM) [%] | remaining activity at 10 µM (MMP-1) [%] | remaining activity at 0.05 µM (MMP-2 [2]) [%] | remaining activity at 0.05 µM (MMP-9 [3]) [%] | inhibition at 0.05 µM (MMP-9 [3]) [%] | inhibition at 0.5 µM (MMP-2 [1]) [%] | remaining activity at 0.5 µM (MMP-2 [1]) [%] | inhibition at 0.5 µM (MMP-9 [4]) [%] | remaining activity at 0.5 µM (MMP-9 [4]) [%] | inhibition at 5 µM (MMP-1; inhibition) [%] | remaining activity at 5 µM (MMP-1) [%] | inhibition at 0.5 µM (MMP-1; inhibition, compound at 0.5 uM, read-out: MMP-1 (%) at 0.5 uM (inhibitory activity)) [%] | inhibition at 0.05 µM (MMP-2 [2]; inhibition, read-out: MMP-2 (%) at 50 nM (inhibitory activity)) [%]
1 | O=C(NO)C1CCCCN1S(=O)(=O)c1ccc(C23CC4CC(CC(C4)C2)C3)cc1 (stereo not drawn) [T-23, 1-((4-((3r,5r,7r)-adamantan-1-yl)phenyl)sulfonyl)-N-hydroxypiperidine-2-carboxamide] |  |  |  | 100 |  | 100 | 100 |  | 0 | 100 | 0 | 100 | 0 | 100 |  | 
2 | CC(=O)Nc1ccc(S(=O)(=O)N2CCCCC2C(=O)NO)cc1 (stereo not drawn) [T-25, 1-((4-acetamidophenyl)sulfonyl)-N-hydroxypiperidine-2-carboxamide] |  |  |  | 100 |  | 100 | 100 |  | 38.3 | 61.7 | 20.6 | 79.4 | 14.2 | 85.8 | 0 | 0
3 | O=C(NO)C1CCCN1S(=O)(=O)c1ccc(C23CC4CC(CC(C4)C2)C3)cc1 (stereo not drawn) [T-32, 1-((4-((3r,5r,7r)-adamantan-1-yl)phenyl)sulfonyl)-N-hydroxypyrrolidine-2-carboxamide] |  |  |  | 100 |  | 100 | 100 |  | 7.6 | 92.4 | 11.9 | 88.1 | 0 | 100 |  | 
4 | CCCc1ccc(S(=O)(=O)N2CCCC2C(=O)NO)cc1 (stereo not drawn) [T-33, N-hydroxy-1-((4-propylphenyl)sulfonyl)pyrrolidine-2-carboxamide] |  |  |  | 100 |  | 90.5 | 100 | 0 | 26.3 | 73.7 | 22.2 | 77.8 | 26.1 | 73.9 |  | 
5 | CC(=O)c1ccc(S(=O)(=O)N2CCCC2C(=O)NO)cc1 (stereo not drawn) [T-34, 1-((4-acetylphenyl)sulfonyl)-N-hydroxypyrrolidine-2-carboxamide] |  |  |  | 100 |  | 100 | 100 |  | 37.8 | 62.2 | 30.1 | 69.9 | 58.2 | 41.8 |  | 

Other lines, results leading:

Row | inhibition at 10 µM (MMP-2 [1]) [%] | remaining activity at 10 µM (MMP-2 [1]) [%] | inhibition at 10 µM (MMP-1; inhibition) [%] | remaining activity at 0.5 µM (MMP-1; compound at 0.5 uM) [%] | remaining activity at 10 µM (MMP-1) [%] | remaining activity at 0.05 µM (MMP-2 [2]) [%] | remaining activity at 0.05 µM (MMP-9 [3]) [%] | inhibition at 0.05 µM (MMP-9 [3]) [%] | inhibition at 0.5 µM (MMP-2 [1]) [%] | remaining activity at 0.5 µM (MMP-2 [1]) [%] | inhibition at 0.5 µM (MMP-9 [4]) [%] | remaining activity at 0.5 µM (MMP-9 [4]) [%] | inhibition at 5 µM (MMP-1; inhibition) [%] | remaining activity at 5 µM (MMP-1) [%] | inhibition at 0.5 µM (MMP-1; inhibition, compound at 0.5 uM, read-out: MMP-1 (%) at 0.5 uM (inhibitory activity)) [%] | inhibition at 0.05 µM (MMP-2 [2]; inhibition, read-out: MMP-2 (%) at 50 nM (inhibitory activity)) [%] | SMILES
6 | 93.8 | 6.2 | 42.9 | 100 | 57.1 | 82.7 | 100 |  |  |  |  |  |  |  |  |  | O=C(NO)C(Cc1ccccc1)NS(=O)(=O)c1ccc2ccccc2c1 (stereo not drawn) [T-11, N-hydroxy-2-(naphthalene-2-sulfonamido)-3-phenylpropanamide]
7 | 71.9 | 28.1 | 0 | 100 | 100 | 100 | 100 |  |  |  |  |  |  |  |  |  | CC(C)CC(NS(=O)(=O)c1ccc(C(C)(C)C)cc1)C(=O)NO (stereo not drawn) [T-13, 2-((4-(tert-butyl)phenyl)sulfonamido)-N-hydroxy-4-methylpentanamide]
8 | 34.8 | 65.2 | 0 | 100 | 100 | 100 | 100 |  |  |  |  |  |  |  |  |  | Cc1cc(C)c(S(=O)(=O)NC(CC(C)C)C(=O)NO)c(C)c1 (stereo not drawn) [T-15, N-hydroxy-4-methyl-2-((2,4,6-trimethylphenyl)sulfonamido)pentanamide]
9 | 0 | 100 | 0 | 100 | 100 | 99.9 | 100 |  |  |  |  |  |  |  |  |  | CC(C)C(NS(=O)(=O)c1ccc(C(C)(C)C)cc1)C(=O)NO (stereo not drawn) [T-18, 2-((4-(tert-butyl)phenyl)sulfonamido)-N-hydroxy-3-methylbutanamide]
10 | 59.9 | 40.1 | 0 | 100 | 100 | 97.8 | 100 | 0 |  |  |  |  |  |  |  |  | Cc1cc(C)c(S(=O)(=O)NC(C(=O)NO)C(C)C)c(C)c1 (stereo not drawn) [T-20, N-hydroxy-3-methyl-2-((2,4,6-trimethylphenyl)sulfonamido)butanamide]
11 |  |  |  | 100 |  | 100 | 100 |  | 0 | 100 | 0 | 100 | 0 | 100 |  |  | CC(C)(C)c1ccc(S(=O)(=O)N2CCCC2C(=O)NO)cc1 (stereo not drawn) [T-28, 1-((4-(tert-butyl)phenyl)sulfonyl)-N-hydroxypyrrolidine-2-carboxamide]
